Assays:
[1] = tested on: PBMCs; assay: Cell mitosis assay (assay g); type: cell-based, human
Description: Peripheral blood mononucleocytes (PBMCs) from healthy subjects are separated from whole blood (Quintiles, London, UK) using a density gradient (Histopaque-1077, Sigma-Aldrich, Poole, UK). The PBMCs (3 million cells per sample) are subsequently treated with 2% PHA (phytohaemagglutinin, Sigma-Aldrich, Poole, UK) for 48 hr, followed by a 20 hr exposure to varying concentrations of test compounds. At 2 hr before collection, PBMCs are treated with demecolcine (0.1 μg/mL; Invitrogen, Paisley, UK) to arrest cells in metaphase. To observe mitotic cells, PBMCs are permeabilised and fixed by adding Intraprep (50 μL; Beckman Coulter, France), and stained with anti-phospho-histone 3 (0.26 ng/L; #9701; Cell Signalling, Danvers, Mass.) and propidium iodide (1 mg/mL; Sigma-Aldrich, Poole, UK) as previously described (Muehlbauer P. A. and Schuler M. J., Mutation Research, 2003, 537:117-130). Fluorescence is observed using an ATTUNE flow cytometer (Invitrogen, Paisley, UK), gating for lymphocytes.

[2] = Systemic pharmacokinetics and total colon tissue distribution after single oral administration; type: in vivo, mouse; details: mice, single oral administration
Description: Studies were conducted by Sai Life Sciences (Hinjewadi, Pune, India) to investigate the systemic pharmacokinetics and total colon tissue distribution of the compound of the invention. In particular, pharmacokinetic studies were carried out in male C57BL/6 mice following a single oral administration of the compound.

## COc1cc(Nc2cc(Oc3ccc(NC(=O)Nc4cc(C(C)(C)C)cc(NS(C)(=O)=O)c4OC)c4ccccc34)ccn2)ccc1C(=O)O [Example 1, 4-((4-((4-(3-(5-(tert-Butyl)-2-methoxy-3-(methylsulfonamido)phenyl)ureido)naphthalen-1-yl)oxy)pyridin-2-yl)amino)-2-methoxybenzoic acid]
[1]
  impact on cell division (mitosis) in PBMCs compared with Reference Compound: markedly less active than the Reference Compound
[2]
  systemic plasma or blood exposures: very low or negligible
